For 14 compounds, TGI and GI50 results are on record in PubChem BioAssay (NCI).

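Each compound was tested at five concentrations against cells in 96-well plates for 48 hours. Here, GI50 denotes the concentration required for 50% inhibition of growth. TGI marks complete inhibition of growth.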

What all share (test): inhibition of tumour cell growth, NCI panel, 48 h
Experiment [1] has as its system K-562 leukemia.
Experiment [2] concerns TK-10 renal.
The subject of experiment [3] is SF-295 CNS.
The test system of experiment [4] is NCI-H522 lung.
For experiment [5], the system named is HCT-15 colon.
In experiment [6] the test system is RPMI-8226 leukemia.
The test system of experiment [7] is UACC-257 melanoma.
Experiment [8] has as its system IGROV1 ovarian.
For experiment [9], the system named is HCT-116 colon.

As for `COc1ccccc1NC(=O)C(CC(C(=O)Nc1ccccc1OC)/C(C)=N/Nc1ccc([N+](=O)[O-])cc1[N+](=O)[O-])/C(C)=N/Nc1ccc([N+](=O)[O-])cc1[N+](=O)[O-]` (centres undefined), the TGI in experiment [1] was more than 100 µM; in [2], 60 µM; in experiment [3], more than 100 µM; in experiment [4], more than 100 µM; in experiment [5], more than 100 µM; in experiment [6], more than 100 µM. Further, the TGI in experiment [7], in experiment [8] and in [9] was more than 100 µM throughout.

Take `COc1ccc(C2CCc3cc4c(cc3/C2=N/OC(C)=O)OCO4)cc1OC` (centres undefined): the TGI in [1] is more than 100 µM; in experiment [2], more than 100 µM; in experiment [3], 82.2 µM; in [4] it was 53.4 µM; in [5], more than 100 µM; in [6], 47.8 µM. Also, the TGI is 51.6 µM in experiment [7], more than 100 µM in experiment [8] and 28.1 µM in [9].

For `CCOC(=O)[C@H]1Nc2ccccc2C2c3ccccc3CC21` (some centres undefined), the TGI in experiment [1], in [2], in experiment [3], in [4], in [5] and in experiment [6] was more than 100 µM in each case. The TGI was 56.9 µM in [7], more than 100 µM in experiment [8] and more than 100 µM in [9].

In the case of `CCCCCCCCCCCCOP(N)(=O)OCCCCCCCCCCCC`, the TGI in experiment [1], in experiment [2], in [3], in experiment [4], in experiment [5] and in experiment [6] was more than 100 µM in each case. For the same compound, the TGI in experiment [7], in experiment [8] and in experiment [9] was more than 100 µM in each case.

As for `Cc1c(C(=O)CSc2nc3ccccc3[nH]2)c(=O)n(-c2ccccc2)n1C`, the TGI in [2], in experiment [3], in [4], in experiment [5], in experiment [6] and in experiment [7] was more than 100 µM throughout. The TGI in [8] and in experiment [9] was more than 100 µM each time.

For `CCC1CNC(=O)CC1CC(=O)OC` (centres undefined), the TGI in experiment [1], in [2], in experiment [4], in experiment [5], in [8] and in [9] was more than 100 µM throughout.

As for `CCOC(=O)C(NC(=O)c1[nH]cnc1/N=N/N(C)C)C(C)C` (centres undefined), the TGI in experiment [1], in experiment [2], in experiment [3], in [4], in experiment [5] and in experiment [6] was more than 100 µM throughout. Also, the TGI in experiment [7], in experiment [8] and in experiment [9] was more than 100 µM throughout.

Regarding `CCCCCCCCCCCCCc1nn[nH]n1`, the TGI is 43.7 µM in [2]; 34.6 µM in experiment [3]; 42.6 µM in [4]; 34.6 µM in [5]; 64.2 µM in experiment [6]; 35.9 µM in experiment [7]. The values for the TGI in experiment [8] and in experiment [9] were 41.1 µM and 31.7 µM, respectively.

Regarding `CNC(=O)CN(CC(N)=O)C(N)=O`, the TGI in [1], in experiment [2], in experiment [3], in [4], in experiment [5] and in experiment [6] was more than 100 µM in each case. The same compound returned a TGI in experiment [8] of more than 100 µM.

As for `Cc1ccc(NC(=O)CC(=O)N2N=C(N(CCC#N)c3cccc(C)c3)CC2c2ccccc2)cc1` (centres undefined), the TGI in experiment [1], in experiment [3], in experiment [4], in experiment [5], in experiment [6] and in experiment [7] was more than 100 µM in each case. The TGI in [8] and in experiment [9] was more than 100 µM throughout.

Consider `COC(=O)/C(=N\NC(N)=S)C(C#N)c1ccccc1` (centres undefined), for which the TGI in experiment [1], in experiment [2], in experiment [3], in [4], in [5] and in experiment [6] was more than 100 µM throughout. Also, the TGI in [7], in experiment [8] and in experiment [9] was more than 100 µM in each case.

For the compound `COc1cc2c(c(OC)c1OC)-c1ccc(SC)c(=O)cc1[C@@H](NC(=O)c1ccc(Cl)cc1)CC2`, the TGI in [1] was more than 100 µM; in experiment [2], more than 100 µM; in experiment [3], less than 0.01 µM; in experiment [5], 0.026 µM; in experiment [6], 95.3 µM; in experiment [7], more than 100 µM. Besides, the TGI in [8] was more than 100 µM; in experiment [9] it was 11.3 µM.

With `COc1ccc(OC)c2c3c(ccc12)C(c1ccccc1)OC3=O` (centres undefined), the TGI in experiment [1], in experiment [2], in [3], in experiment [4], in experiment [5] and in experiment [6] was more than 100 µM each time. Besides, the TGI in experiment [7], in experiment [8] and in [9] was more than 100 µM each time.

Consider `N[C@@H]1CCCC[C@@H]1N.O=P([O-])([O-])CN(CP(=O)([O-])[O-])CP(=O)([O-])[O-].[Pt+2]`, for which the GI50 in experiment [1], in experiment [2], in experiment [3], in experiment [5], in experiment [6] and in experiment [7] was more than 100 µM in each case. Moreover, the GI50 in [8] and in [9] was more than 100 µM in each case. Also, the TGI in [1], in [2], in experiment [3], in [5], in [6] and in [7] was more than 100 µM in each case. In addition, the TGI in experiment [8] and in experiment [9] was more than 100 µM each time.
